Measured values reported in the supplement of paper PMC4862054.

Tests used:
HCC1599 [1] = conditions: 72 h
Outline: (§1)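 Breast cancer cell lines in 20 µl suspension were added to 384-well plates already holding compound at 5 concentrations, spaced in 10-fold steps across a compound-specific 10,000-fold range, and incubated for 72 h. CellTox Green fluorescence (485/520 nm) was read first to measure cell death, followed by CellTiter-Glo luminescence for viability after 10 min at room temperature. Each plate was normalised to 0.1 % DMSO and a positive kill control. EC50 values came from dose-response curve fits and were censored at the top concentration.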

CAL-148 [2] = conditions: 72 h
Outline: as §1

HDQ-P1 [3] = conditions: 72 h
Outline: as §1

MFM-223 [4] = conditions: 72 h
Outline: as §1

DU-4475 [5] = conditions: 72 h
Outline: as §1

CAL-85-1 [6] = conditions: 72 h
Outline: (§2)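 To measure viability, fluorescence at 560/590 nm was read after 2.5 µl CellTiter-Blue had been added for 2 h at 37 °C. Cells from breast cancer lines had been seeded in 20 µl suspension onto 384-well plates pre-loaded with compound dissolved in 5 µl medium and kept for 72 h. EC50 comes from a fitted percent-inhibition dose-response curve censored at the highest concentration, after per-plate normalisation to vehicle and a positive kill control, Z'-factor checks, and removal of rows with zero drug sensitivity score.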

CAL-148 [7] = conditions: 72 h; remark: listed apart in the source
Outline: as §2

CAL-51 [8] = conditions: 72 h
Outline: as §2

HDQ-P1 [9] = conditions: 72 h; remark: listed apart in the source
Outline: as §2

DU-4475 [10] = conditions: 72 h; remark: listed apart in the source
Outline: as §2

HCC1599 [11] = conditions: 72 h; remark: listed apart in the source
Outline: as §2

HCC1937 [12] = conditions: 72 h
Outline: as §2

Hs578T = conditions: 72 h
Outline: as §2

MDA-MB-468 [13] = conditions: 72 h
Outline: as §2

HCC1143 [14] = conditions: 72 h
Outline: as §2

MDA-MB-231 [15] = conditions: 72 h
Outline: as §2

BT-474 [16] = conditions: 72 h
Outline: as §2

MFM-223 [17] = conditions: 72 h; remark: listed apart in the source
Outline: as §2

SK-BR-3 = conditions: 72 h
Outline: as §2

BT-549 [18] = conditions: 72 h
Outline: as §2

CAL-120 = conditions: 72 h
Outline: as §2

CAL-148 [19] = assay: drug sensitivity score (DSS), CellTiter-Blue viability (DSS (AUC-based score)); higher = stronger viability inhibition; extreme values may be limits of the assay; conditions: incubation time: 72 h
Method: (§3)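 DSRT with the CellTiter-Blue (resazurin reduction) viability readout, fluorescence 560/590 nm, 72 h incubation. Plates were normalised to DMSO and benzethonium chloride controls. DSS is computed from the area under the fitted dose-response curve (5 or 9 concentrations).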

MDA-MB-231 [20] = assay: as above; conditions: incubation time: 72 h
Method: as §3

CAL-85-1 [21] = conditions: 72 h; remark: listed apart in the source
Method: (§4)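 Drug sensitivity and resistance testing (DSRT) of breast cancer cell lines in 384-well plates, 5 concentrations in 10-fold dilutions over a compound-specific 10,000-fold range. After 72 h, cytotoxicity was read by CellTox Green fluorescence and viability by CellTiter-Glo luminescence (multiplexed), normalised to DMSO and benzethonium chloride controls. EC50 is the inflection point of the fitted dose-response curve (bottom asymptote free, so it can be relative for partial curves) and is censored at the highest tested concentration. Rows with DSS 0 (no meaningful response) were excluded.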

CAL-51 [22] = conditions: 72 h; remark: listed apart in the source
Method: as §4

MDA-MB-436 [23] = conditions: 72 h
Outline: as §2

HCC1937 [24] = conditions: 72 h; remark: listed apart in the source
Method: as §4

MDA-MB-436 [25] = conditions: 72 h; remark: listed apart in the source
Method: as §4

MDA-MB-468 [26] = conditions: 72 h; remark: listed apart in the source
Method: as §4

MDA-MB-231 [27] = conditions: 72 h; remark: listed apart in the source
Method: as §4

HDQ-P1 [28] = conditions: 72 h; remark: listed apart in the source
Method: as §4

BT-474 [29] = conditions: 72 h; remark: listed apart in the source
Method: as §4

MDA-MB-453 = conditions: 72 h
Method: as §4

MFM-223 [30] = conditions: 72 h; remark: listed apart in the source
Method: as §4

MCF-10A = conditions: 72 h
Method: as §4

BT-549 [31] = conditions: 72 h; remark: listed apart in the source
Method: as §4

HCC1143 [32] = conditions: 72 h; remark: listed apart in the source
Outline: as §1

HCC1599 [33] = conditions: 72 h; remark: listed apart in the source
Method: as §4

DU-4475 [34] = conditions: 72 h; remark: listed apart in the source
Method: as §4

Row | SMILES | EC50, CellTiter-Glo (HCC1599 [1]) [nM] | EC50, CellTiter-Blue viability (HCC1599 [11]) [nM] | EC50, CellTiter-Blue viability (HCC1937 [12]) [nM] | EC50, CellTiter-Blue viability (MDA-MB-468 [13]) [nM] | EC50, CellTiter-Blue viability (HCC1143 [14]) [nM] | EC50, CellTiter-Blue viability (MDA-MB-231 [15]) [nM] | EC50, CellTiter-Blue viability (BT-474 [16]) [nM] | EC50, CellTiter-Blue viability (SK-BR-3) [nM] | EC50, CellTiter-Blue viability (BT-549 [18]) [nM] | EC50, CellTiter-Blue viability (MDA-MB-436 [23]) [nM] | EC50, CellTiter-Glo (HCC1143 [32]) [nM] | EC50, CellTiter-Glo (CAL-148 [2]) [nM] | EC50, CellTiter-Glo (HDQ-P1 [3]) [nM] | EC50, CellTiter-Glo (MFM-223 [4]) [nM] | EC50, CellTiter-Glo (DU-4475 [5]) [nM] | EC50, CellTiter-Blue viability (CAL-85-1 [6]) [nM] | EC50, CellTiter-Blue viability (CAL-148 [7]) [nM] | EC50, CellTiter-Blue viability (CAL-51 [8]) [nM] | EC50, CellTiter-Blue viability (HDQ-P1 [9]) [nM] | EC50, CellTiter-Blue viability (DU-4475 [10]) [nM] | EC50, CellTiter-Blue viability (Hs578T) [nM] | EC50, CellTiter-Blue viability (MFM-223 [17]) [nM] | EC50, CellTiter-Blue viability (CAL-120) [nM] | drug sensitivity score (CAL-148 [19]) | drug sensitivity score (MDA-MB-231 [20]) | EC50, CellTox Green (CAL-85-1 [21]) [nM] | EC50, CellTox Green (CAL-51 [22]) [nM] | EC50, CellTox Green (HCC1937 [24]) [nM] | EC50, CellTox Green (MDA-MB-436 [25]) [nM] | EC50, CellTox Green (MDA-MB-468 [26]) [nM] | EC50, CellTox Green (MDA-MB-231 [27]) [nM] | EC50, CellTox Green (HDQ-P1 [28]) [nM] | EC50, CellTox Green (BT-474 [29]) [nM] | EC50, CellTox Green (MDA-MB-453) [nM] | EC50, CellTox Green (MFM-223 [30]) [nM] | EC50, CellTox Green (MCF-10A) [nM] | EC50, CellTox Green (BT-549 [31]) [nM] | EC50, CellTox Green (HCC1599 [33]) [nM] | EC50, CellTox Green (DU-4475 [34]) [nM]
1 | C[C@]12CC[C@H](O)CC1=CC[C@@H]1[C@@H]2CC[C@]2(C)C(c3cccnc3)=CC[C@@H]12 [Abiraterone] |  |  |  |  |  |  |  |  |  |  |  |  |  |  |  |  |  |  |  |  |  |  |  | 0 | 0 |  |  |  |  |  |  |  |  |  |  |  |  |  | 
2 | CCCCCCCCc1ccc(CCC(N)(CO)CO)cc1 [Fingolimod] | 9540 |  | 2960 | 3550 |  | 2140 | 3940 | 3870 | 2220 | 1780 |  | 9190 | 6870 | 6920 |  | 5290 |  |  | 5350 |  | 3440 | 4430 | 2380 | 0 | 7.64 | 2040 | 7860 | 320 | 8120 | 2510 | 2650 | 7660 | 3460 | 7630 | > 10000 | 1110 | 8700 |  | 
3 | O=C(O)CCCc1ccc(N(CCCl)CCCl)cc1 [Chlorambucil] |  |  | 731 | 5340 |  |  |  |  |  |  |  |  |  |  |  |  |  |  |  |  |  |  |  | 0 | 0 |  |  |  | > 10000 |  |  |  |  |  |  |  |  |  | 

Further lines, with some results ahead:

Row | EC50, CellTiter-Glo (HCC1599 [1]) [nM] | EC50, CellTiter-Blue viability (HCC1599 [11]) [nM] | EC50, CellTiter-Blue viability (HCC1937 [12]) [nM] | EC50, CellTiter-Blue viability (MDA-MB-468 [13]) [nM] | EC50, CellTiter-Blue viability (HCC1143 [14]) [nM] | EC50, CellTiter-Blue viability (MDA-MB-231 [15]) [nM] | EC50, CellTiter-Blue viability (BT-474 [16]) [nM] | EC50, CellTiter-Blue viability (SK-BR-3) [nM] | EC50, CellTiter-Blue viability (BT-549 [18]) [nM] | EC50, CellTiter-Blue viability (MDA-MB-436 [23]) [nM] | EC50, CellTiter-Glo (HCC1143 [32]) [nM] | SMILES | EC50, CellTiter-Glo (CAL-148 [2]) [nM] | EC50, CellTiter-Glo (HDQ-P1 [3]) [nM] | EC50, CellTiter-Glo (MFM-223 [4]) [nM] | EC50, CellTiter-Glo (DU-4475 [5]) [nM] | EC50, CellTiter-Blue viability (CAL-85-1 [6]) [nM] | EC50, CellTiter-Blue viability (CAL-148 [7]) [nM] | EC50, CellTiter-Blue viability (CAL-51 [8]) [nM] | EC50, CellTiter-Blue viability (HDQ-P1 [9]) [nM] | EC50, CellTiter-Blue viability (DU-4475 [10]) [nM] | EC50, CellTiter-Blue viability (Hs578T) [nM] | EC50, CellTiter-Blue viability (MFM-223 [17]) [nM] | EC50, CellTiter-Blue viability (CAL-120) [nM] | drug sensitivity score (CAL-148 [19]) | drug sensitivity score (MDA-MB-231 [20]) | EC50, CellTox Green (CAL-85-1 [21]) [nM] | EC50, CellTox Green (CAL-51 [22]) [nM] | EC50, CellTox Green (HCC1937 [24]) [nM] | EC50, CellTox Green (MDA-MB-436 [25]) [nM] | EC50, CellTox Green (MDA-MB-468 [26]) [nM] | EC50, CellTox Green (MDA-MB-231 [27]) [nM] | EC50, CellTox Green (HDQ-P1 [28]) [nM] | EC50, CellTox Green (BT-474 [29]) [nM] | EC50, CellTox Green (MDA-MB-453) [nM] | EC50, CellTox Green (MFM-223 [30]) [nM] | EC50, CellTox Green (MCF-10A) [nM] | EC50, CellTox Green (BT-549 [31]) [nM] | EC50, CellTox Green (HCC1599 [33]) [nM] | EC50, CellTox Green (DU-4475 [34]) [nM]
4 | 8630 | 151 | 101 | 5590 | 7.7 | 97.8 | 1450 | 540 | 3730 |  |  | Cn1cncc1[C@@](N)(c1ccc(Cl)cc1)c1ccc2c(c1)c(-c1cccc(Cl)c1)cc(=O)n2C [Tipifarnib] | 380 | 106 | 5050 | 412 | 33.1 | 33 | 1500 | 16.6 | 59.1 | 4400 | 1010 | 55.5 | 18.8 | 11.7 | 4740 | 19.9 |  |  |  |  |  |  |  |  |  |  |  | 
5 |  | 20.8 | 6.87 | 27.1 | 15.2 | 12.9 | 21.7 | 26.4 | 12.8 | 52.5 |  | Cn1c(=O)n(-c2ccc(C(C)(C)C#N)cc2)c2c3cc(-c4cnc5ccccc5c4)ccc3ncc21 [NVP-BEZ235] |  |  |  |  | 12.6 | 17.6 | 10.1 | 10.8 | 54 | 8.08 | 7.73 | 10.1 | 19.5 | 17 |  |  |  |  |  |  |  |  |  |  |  |  |  | 
6 | 365 |  |  |  |  |  |  |  |  |  | 845 | NS(=O)(=O)OC[C@@H]1C[C@@H](n2ccc3c(N[C@H]4CCc5ccccc54)ncnc32)C[C@@H]1O [Pevonedistat] |  | 1560 | 155 | 137 |  |  |  |  |  |  |  |  |  |  |  | 82.6 |  | 1510 | 436 |  |  |  |  |  |  |  | 1840 | 327
